Legend:
Experiment in all cases: relative viability (nuclei count vs DMSO), 5 days (fraction); higher = more cells survive
[1] = tested on: NCI-H2087
Outline: (§1)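 Relative viability was taken as the ratio of nuclei in treated wells to nuclei in vehicle wells. Lung cancer cell lines in 1536-well plates received compounds by pin tool one day after seeding, either one drug alone or a fixed anchor-drug dose plus five library-drug doses (not always all listed) in √10 steps. Nuclei were counted on 4× images after 5 days of treatment, and values are medians of duplicate plates.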

[2] = tested on: HCC-78
Outline: as §1

[3] = tested on: NCI-H1648
Outline: as §1

[4] = tested on: HCC-44
Outline: as §1

[5] = tested on: NCI-H322M
Outline: as §1

[6] = tested on: NCI-H1563
Outline: as §1

Structure (SMILES)	relative viability ([1]; first compound 0.002 µM)	relative viability ([1]; first compound 0.006325 µM)	relative viability ([1]; first compound 0.02 µM)	relative viability ([1]; first compound 0.06325 µM)	relative viability ([1]; first compound 0.2 µM)	relative viability ([2]; first compound 0.002 µM)	relative viability ([2]; first compound 0.02 µM)	relative viability ([2]; first compound 0.06325 µM)	relative viability ([2]; first compound 0.2 µM)	relative viability ([3]; first compound 0.002 µM)	relative viability ([3]; first compound 0.006325 µM)	relative viability ([3]; first compound 0.02 µM)	relative viability ([3]; first compound 0.06325 µM)	relative viability ([3]; first compound 0.2 µM)	relative viability ([4]; first compound 0.002 µM)	relative viability ([4]; first compound 0.006325 µM)	relative viability ([4]; first compound 0.02 µM)	relative viability ([4]; first compound 0.06325 µM)	relative viability ([4]; first compound 0.2 µM)	relative viability ([5]; first compound 0.2 µM)	further results
CCNC(=O)c1noc(-c2cc(C(C)C)c(O)cc2O)c1-c1ccc(CN2CCOCC2)cc1 [Luminespib] + CC(=O)Nc1cccc(-n2c(=O)n(C3CC3)c(=O)c3c(Nc4ccc(I)cc4F)n(C)c(=O)c(C)c32)c1 [Trametinib] (partner 0.02 µM)	0.197	0.218	0.205	0.146	0.11	0.74	0.572	0.874	0.512	0.395	0.492	0.513	0.407	0.278	0.979	1.19	1.24	0.982	0.775	0.407	relative viability ([2]; first compound 0.006325 µM): 0.61; relative viability ([5]; first compound 0.002 µM): 0.494; relative viability ([5]; first compound 0.006325 µM): 0.535; relative viability ([5]; first compound 0.02 µM): 0.453; relative viability ([5]; first compound 0.06325 µM): 0.456
CCNC(=O)c1noc(-c2cc(C(C)C)c(O)cc2O)c1-c1ccc(CN2CCOCC2)cc1 [Luminespib] + CC(=O)c1c(C)c2cnc(Nc3ccc(N4CCNCC4)cn3)nc2n(C2CCCC2)c1=O [Palbociclib] (partner 0.5 µM)	0.205	0.232	0.185	0.11	0.114	0.461	0.467	0.51	0.427	0.216	0.336	0.246	0.361	0.387	0.942	0.998	1.09	0.986	0.858	0.382	relative viability ([5]; first compound 0.002 µM): 0.406; relative viability ([5]; first compound 0.006325 µM): 0.471; relative viability ([5]; first compound 0.02 µM): 0.448; relative viability ([5]; first compound 0.06325 µM): 0.427
CCNC(=O)c1noc(-c2cc(C(C)C)c(O)cc2O)c1-c1ccc(CN2CCOCC2)cc1 [Luminespib] + Nc1nc2[nH]cc(CCc3ccc(C(=O)N[C@@H](CCC(=O)O)C(=O)O)cc3)c2c(=O)[nH]1 [Pemetrexed] (partner 0.2 µM)	0.708	0.627	0.639	0.152	0.133	0.885	0.97	0.87	0.858	0.753	0.683	0.899	0.749	0.267	0.613	0.611	0.773	0.659	0.657	0.376	relative viability ([2]; first compound 0.006325 µM): 0.864; relative viability ([5]; first compound 0.002 µM): 0.638; relative viability ([5]; first compound 0.006325 µM): 0.507; relative viability ([5]; first compound 0.02 µM): 0.596; relative viability ([5]; first compound 0.06325 µM): 0.409; relative viability ([6]; first compound 0.002 µM): 0.808; relative viability ([6]; first compound 0.006325 µM): 0.599; relative viability ([6]; first compound 0.02 µM): 0.668; relative viability ([6]; first compound 0.06325 µM): 0.402; relative viability ([6]; first compound 0.2 µM): 0.41
Cc1csc(=NC2CCCCC2)n1/N=C/c1ccc(O)c(O)c1O [MIM1] + CC(=O)Nc1cccc(-n2c(=O)n(C3CC3)c(=O)c3c(Nc4ccc(I)cc4F)n(C)c(=O)c(C)c32)c1 [Trametinib] (partner 0.02 µM)	–	–	–	–	0.293	–	–	–	0.75	–	–	–	–	0.419	–	–	–	–	1.05	0.508	relative viability ([1]; first compound 0.6325 µM): 0.227; relative viability ([1]; first compound 2 µM): 0.197; relative viability ([1]; first compound 6.325 µM): 0.175; relative viability ([1]; first compound 20 µM): 0.202; relative viability ([2]; first compound 2 µM): 0.778; relative viability ([2]; first compound 6.325 µM): 0.556; relative viability ([2]; first compound 20 µM): 1.15; relative viability ([3]; first compound 0.6325 µM): 0.439; relative viability ([3]; first compound 2 µM): 0.619; relative viability ([3]; first compound 6.325 µM): 0.499; relative viability ([3]; first compound 20 µM): 0.267; relative viability ([4]; first compound 0.6325 µM): 1.07; relative viability ([4]; first compound 2 µM): 1.06; relative viability ([4]; first compound 6.325 µM): 1.13; relative viability ([4]; first compound 20 µM): 0.304; relative viability ([5]; first compound 0.6325 µM): 0.596; relative viability ([5]; first compound 2 µM): 0.456; relative viability ([5]; first compound 6.325 µM): 0.526; relative viability ([5]; first compound 20 µM): 0.577

— the supplement of paper PMC10307832
